Ends that are not written are not given here.
Assays:
metastatic melanoma = conditions: cited from earlier work
[1] = system: human non-small cell lung cancer (NSCLC) cells; conditions: subcutaneous 1 or 10 mg per day; nude mice previously inoculated with human NSCLC cells; cited from earlier work
lymphosarcoma cells = conditions: BALB/c mice; cited from earlier work
[2] = system: stage IV melanoma characterized by distant unresectable metastases; experiment: Phase II clinical trial with DTIC plus Tα1 with or without IFNα vs DTIC plus IFNα; tumor response by RECIST; assay type: in vivo, human; conditions: preliminary analysis on 142 patients; at the higher doses of Tα1
Source text: Phase II Clinical Trial with Dacarbazine (DTIC) Plus Thymosin alpha 1 (Tα1) with or without Interferon alpha (IFNα) vs DTIC Plus IFNα in Stage IV Melanoma Characterized by Distant Unresectable Metastases
Trial Design phase II, randomized, stratified, open-study testing different doses of Tα1 in association with DTIC and IFNα, as first line therapy for stage IV melanoma patients characterized by distant unresectable metastases (AJCC; Journal of Clinical Oncology 2001, 19: 3635-3648) without brain metastases. The primary study end-point was tumor response, and the following combination composition were used:
The protocol was than amended: 30 patients were added to each of the 2 triple therapies in order to balance the sample size of all the four groups and the following new group (using a higher dose of Tα1) was added:
The five groups were analyzed independently one another within the so-called “pick the winner” strategy.
Methods: Recycling every 28 days, patients were administered DTIC (800 mg/m^2) i.v. at day 1, Tα1 (1.6 or 3.2 mg) s.c. at days 8-11 and 15-18, and IFNα (3 MIU) s.c. at day 11 and 18. Clinical response was evaluated every two cycles according to RECIST criteria (New Guidelines to Evaluate the Response to Treatment in Solid Tumors; Journal of the National Cancer Institute, 2000. 92: 205-216) utilizing a central reader. […]

Compound	duration of responses (short-lived) (metastatic melanoma; DTIC responses)	effect of responses on patients' overall survival (metastatic melanoma; DTIC)	actual overall responses to DTIC (metastatic melanoma; Journal of Clinical Oncology and ASCO proceedings 2004)	tumor volume [1]	local sarcoma growth as well as liver and lung metastases of lymphosarcoma cells (lymphosarcoma cells)	dose-response effect on tumor response [2]
CN(C)/N=N/c1[nH]cnc1C(N)=O [DTIC, Dacarbazine]	three to six	no evidence that these responses have any effect on the patients' overall survival	5.5-6.8%			
thymosin alpha 1 (SDAAVDTSSEITTKDLKEKKEVVEEAEN; ends and bridges not checked; UniProt P06454 2-29, looked up) [a compound well known in the medical field]				significantly decreased	significantly reduced	clear dose-response effect
